From patent publication US20220047507A1, “MELFLUFEN DOSAGE REGIMENS FOR CANCER” (ONCOPEPTIDES AB, priority 2015, published 2022)
Read-outs that look alike come from different tables or passages of the source.

Columns and labels:
[1] = tested on: relapsed-refractory multiple myeloma (RRMM) patients; assay: Safety in patients with RRMM, Example 2b, time point (bii); type: in vivo, human
Method: Example 2: An open label single arm extension on the dose of 40 mg over 30 minutes of Example 1. Intravenous melflufen was administered over 30 minutes on Day 1 of a 21-day cycle or 28-day cycle (in combination with 40 mg dexamethasone (oral or intravenous) treatment on Days 1, 8 and 15) for at least 2 cycles, and up to the stated number of cycles. The cycle length was extended during the Example 2 Clinical Trial from 21 to 28 days per a protocol amendment to allow for a better recovery of neutrophils and thrombocytes before a new cycle is initiated.
Dose reductions from 40 mg to 25 mg melflufen for patients in the trial was possible in connection with adverse effects of thrombocytopenia/neutropenia.
Example 2a results are from a data cut-off of time point (a). Example 2b results are from a data cut-off of time point (bi) for the efficacy data, which was approximately 12 months after time point (a); and from a data cut-off of time point (bii) for the safety data, which was approximately 10 months after time point (a).
By the data cut-off point for safety data (time point (bii)) 40 patients has been dosed with 183 doses of melflufen hydrochloride 40 mg over 30 minutes. A total of 11 patients had dose reductions from 40 mg to 25 mg melflufen during the study. All dose reductions were in connection with AEs of thrombocytopenia/neutropenia. Seven (7) patients (64%) had dose reductions in connection to thrombocytopenia, 3 patients to neutropenia (27%) and 1 patient (9%) to both thrombocytopenia and neutropenia.

[2] = human, in vivo, iv
[3] = tested on: relapsed-refractory multiple myeloma (RRMM) patients; assay: Efficacy in patients with RRMM, Example 2a; type: in vivo, human; settings: Evaluable ≥ 1 cycle, n 35
[4] = tested on: relapsed-refractory multiple myeloma (RRMM) patients; assay: Safety in patients with RRMM, Example 2b, time point (bii); type: in vivo, human; settings: of the 57 patients in the ongoing melflufen study
MM cells = settings: in vitro; cited from earlier work
[5] = tested on: different human tumors, including MM; settings: at seemingly comparable toxicity; cited from earlier work
clinical = settings: human, in vivo, iv; for AUC(0-t): AUC0-4; for AUC(0-inf): AUCinf
[6] = tested on: MM cell lines resistant to dexamethasone, bortezomib and melphalan; settings: in vitro; cited from earlier work
[7] = 40 mg melflufen (+dex) treated patients
[8] = 40 mg treated patients, Example 2b
[9] = 40 mg, Example 2b N = 40, listed as melflufen hydrochloride
[10] = Cycle length 21 days, 30 patients, 87 cycles
[11] = Cycle length 28 days, 10 patients, 24 cycles
[12] = of the 11 patients with dose reductions
[13] = of the 40 safety evaluable patients

CCOC(=O)[C@H](Cc1ccc(F)cc1)NC(=O)[C@@H](N)Cc1ccc(N(CCCl)CCCl)cc1.Cl [melflufen, L-Melphalanyl-4-fluoro-L-phenylalanine ethyl ester]
Grade 3 and 4 febrile neutropenia regardless of relationship [1, 7]: 5%
Grade 3 and 4 lower respiratory tract infection regardless of relationship [1, 7]: 2%
Grade 3 and 4 lower respiratory tract infection regardless of relationship, n patients [1, 7]: 1
Grade 3 and 4 neutropenia regardless of relationship, n patients [1, 7]: 23
Grade 3 and 4 parainfluenza virus infection regardless of relationship [1, 7]: 2%
Grade 3 and 4 parainfluenza virus infection regardless of relationship, n patients [1, 7]: 1
Grade 3 and 4 pneumonia regardless of relationship [1, 7]: 10%
Grade 3/4 hyperglycemia (reported as treatment-related to dexamethasone) [1, 8]: 10%
Grade 3/4 hyperglycemia (reported as treatment-related to dexamethasone), n patients [1, 8]: 4
Serious TEAE related to melflufen: Diarrhoea ([1]; 40 mg, Example 2b): (5) %
Serious TEAE related to melflufen: Diarrhoea, number of patients ([1]; 40 mg, Example 2b): 2
Serious TEAE related to melflufen: Escherichia coli sepsis ([1]; 40 mg, Example 2b): (2.5) %
Serious TEAE related to melflufen: Escherichia coli sepsis, number of patients ([1]; 40 mg, Example 2b): 1
Serious TEAE related to melflufen: Febrile Neutropenia ([1]; 40 mg, Example 2b): (5) %
Serious TEAE related to melflufen: Febrile Neutropenia, number of patients ([1]; 40 mg, Example 2b): 2
Serious TEAE related to melflufen: Neutropenia ([1]; 40 mg, Example 2b): (5) %
Serious TEAE related to melflufen: Neutropenia, number of patients ([1]; 40 mg, Example 2b): 2
Serious TEAE related to melflufen: Pneumonia ([1]; 40 mg, Example 2b): (10) %
Serious TEAE related to melflufen: Pneumonia, number of patients ([1]; 40 mg, Example 2b): 4
Serious TEAE related to melflufen: Pyrexia ([1]; 40 mg, Example 2b): (5) %
Serious TEAE related to melflufen: Pyrexia, number of patients ([1]; 40 mg, Example 2b): 2
anemia, all grades, regardless of relationship ([1]; 40 mg, Example 2b): 65%
asthenia, all grades, regardless of relationship ([1]; 40 mg, Example 2b): 35%
diarrhoea, all grades, regardless of relationship ([1]; 40 mg, Example 2b): 25%
nausea, all grades, regardless of relationship ([1]; 40 mg, Example 2b): 28%
neutropenia, all grades, regardless of relationship ([1]; 40 mg, Example 2b): 65%
pyrexia, all grades, regardless of relationship ([1]; 40 mg, Example 2b): 43%
thrombocytopenia, all grades, regardless of relationship ([1]; 40 mg, Example 2b): 73%
Anemia, treatment related ≥grade 3 ([1]; 40 mg, Example 2b N = 40): 43%
Any treatment-related grade 3 and/or grade 4, grade 4 ([1]; 40 mg, Example 2b N = 40): (50) %
Any treatment-related grade 3 and/or grade 4, ≥grade 3 ([1]; 40 mg, Example 2b N = 40): 85%
Asthenia, treatment related ≥grade 3 ([1]; 40 mg, Example 2b N = 40): (5) %
Blood and lymphatic system disorders, treatment related grade 4 ([1]; 40 mg, Example 2b N = 40): (50) %
Blood and lymphatic system disorders, treatment related ≥grade 3 ([1]; 40 mg, Example 2b N = 40): (82.5) %
Fatigue, treatment related ≥grade 3 ([1]; 40 mg, Example 2b N = 40): (5) %
Febrile neutropenia, treatment related ≥grade 3 ([1]; 40 mg, Example 2b N = 40): (5) %
General disorders and administration site conditions, treatment related ≥grade 3 ([1]; 40 mg, Example 2b N = 40): (17.5) %
Hyperglycemia, treatment related grade 4 ([1]; 40 mg, Example 2b N = 40): (3) %
Hyperglycemia, treatment related ≥grade 3 ([1]; 40 mg, Example 2b N = 40): (8) %
Infections and infestations, treatment related ≥grade 3 ([1]; 40 mg, Example 2b N = 40): (5) %
Investigations, treatment related ≥grade 3 ([1]; 40 mg, Example 2b N = 40): (12.5) %
Metabolism and nutrition disorders, treatment related grade 4 ([1]; 40 mg, Example 2b N = 40): (3) %
Metabolism and nutrition disorders, treatment related ≥grade 3 ([1]; 40 mg, Example 2b N = 40): (8) %
Neutropenia, treatment related grade 4 ([1]; 40 mg, Example 2b N = 40): (30) %
Neutropenia, treatment related ≥grade 3 ([1]; 40 mg, Example 2b N = 40): 58%
Neutrophil count decreased, treatment related ≥grade 3 ([1]; 40 mg, Example 2b N = 40): (10) %
Pneumonia, treatment related ≥grade 3 ([1]; 40 mg, Example 2b N = 40): (5) %
Pyrexia, treatment related ≥grade 3 ([1]; 40 mg, Example 2b N = 40): (5) %
Thrombocytopenia, treatment related grade 4 ([1]; 40 mg, Example 2b N = 40): (40) %
Thrombocytopenia, treatment related ≥grade 3 ([1]; 40 mg, Example 2b N = 40): 63%
White blood cell count decreased, treatment related ≥grade 3 ([1]; 40 mg, Example 2b N = 40): (5) %
Anemia, treatment related ≥grade 3 [1, 9]: (43) %
Any treatment-related grade 3 and/or grade 4, ≥grade 3 [1, 9]: (85) %
Neutropenia, treatment related ≥grade 3 [1, 9]: (57.5) %
Thrombocytopenia, treatment related ≥grade 3 [1, 9]: (62.5) %
patients with Serious TEAEs ([1]; 40 mg, Example 2b, 40 patients): 40%
patients with treatment-related Serious TEAEs ([1]; 40 mg, Example 2b, 40 patients): 30%
median number of cycles before discontinuation due to bone marrow suppression ([1]; 14 patients): 3.5 cycles
Cycles with a dose interruption [1, 10]: (37) % of total
Patients with a dose interruption [1, 10]: (57) % of total
Patients with a dose reduction [1, 10]: (37) % of total
Cycles with a dose interruption [1, 11]: (13) % of total
Patients with a dose interruption [1, 11]: (30) % of total
Patients with a dose reduction [1, 11]: (20) % of total
incidence of Grade 3-4 pneumonia ([1]; Example 2b): 14%
infectious adverse effects with fatal outcomes possibly related to the study treatments ([1]; Example 2b): 8%
infectious adverse effects with fatal outcomes possibly related to the study treatments, n patients ([1]; Example 2b): 3
patients with TEAEs leading to dose reduction of melflufen from 40 mg to 25 mg ([1]; Example 2b, 40 patients): 32.5%
effect on renal function ([1]; MM patients, clinical trials): does not appear to have any effect on renal function
reports of syncope, seizures, ventricular arrhythmias, ventricular tachycardia, ventricular fibrillation, flutter, torsade de pointes, or sudden deaths ([1]; in the clinical trials): no reports
dose reductions in connection to both thrombocytopenia and neutropenia [1, 12]: 9%
dose reductions in connection to both thrombocytopenia and neutropenia, n patients [1, 12]: 1
dose reductions in connection to neutropenia [1, 12]: 27%
dose reductions in connection to neutropenia, n patients [1, 12]: 3
dose reductions in connection to thrombocytopenia [1, 12]: 64%
dose reductions in connection to thrombocytopenia, n patients [1, 12]: 7
treatment discontinuations due to treatment-related bone marrow suppression [1, 13]: 35%
treatment discontinuations due to treatment-related bone marrow suppression, n patients [1, 13]: 14
fatal events while on treatment or within 30 days of last dose, n patients ([1]; of the 57 patients in the ongoing melflufen study): 6
time after end of infusion within which melflufen is no longer measurable [2]: ≤ 15 min
tmax ([2]; 25 mg): 15 min
tmax ([2]; 40 mg): 25 min
Positive Response (PR), patients [3]: 9
Progressive Disease (PD), patients [3]: 8
fatal events while on treatment or within 30 days of last dose [4]: 11%
intracellular exposure (as AUC) of alkylating agents compared to an equimolar dosage of melphalan (MM cells): ≥ 20 fold
antitumor activity over equimolar dosage of melphalan [5]: superior antitumor activity
AUC(0-t) (clinical; 15 mg): 13.5 ng·h/mL
AUC(0-inf) (clinical; 15 mg): 16.3 ng·h/mL
Cmax (clinical; 15 mg): 39 ng/mL
half-life (clinical; 15 mg, T1/2): 13 min
tmax (clinical; 15 mg): 15 min
AUC(0-t) (clinical; 25 mg): 40.8 ng·h/mL
AUC(0-inf) (clinical; 25 mg): 40.8 ng·h/mL
Cmax (clinical; 25 mg): 102 ng/mL
half-life (clinical; 25 mg, T1/2): 4.6 min
tmax (clinical; 25 mg): 12 min
AUC(0-t) (clinical; 40 mg): 89.3 ng·h/mL
AUC(0-inf) (clinical; 40 mg): 89.3 ng·h/mL
Cmax (clinical; 40 mg): 222 ng/mL
half-life (clinical; 40 mg, T1/2): 1.1 min
tmax (clinical; 40 mg): 15 min
AUC(0-t) (clinical; 55 mg): 102 ng·h/mL
AUC(0-inf) (clinical; 55 mg): 102 ng·h/mL
Cmax (clinical; 55 mg): 245 ng/mL
half-life (clinical; 55 mg, T1/2): 2.7 min
tmax (clinical; 55 mg): 25 min
half-life (clinical; half-life of melflufen concentrations after end of infusion): 3 to 5 min
cytotoxic activities in resistant MM cell lines [6]: concentrations similar to those observed in the parenteral, non-resistant cell lines
